Ends that are not written are not given here.
Key:
calcium ion channel V6 = target: T1, calcium ion channel V6 (Homo sapiens, UniProt Q9H1D0); test: Caco-2 calcium uptake with calcium ion channel V6 inhibitor ruthenium red; format: cell-based; conditions: 6 mM calcium ions, 400 μM peptide of SEQ ID No. 1
T1 construct: endogenous in cells; host or cells: Caco-2
T1 sequence (Q9H1D0 1-765): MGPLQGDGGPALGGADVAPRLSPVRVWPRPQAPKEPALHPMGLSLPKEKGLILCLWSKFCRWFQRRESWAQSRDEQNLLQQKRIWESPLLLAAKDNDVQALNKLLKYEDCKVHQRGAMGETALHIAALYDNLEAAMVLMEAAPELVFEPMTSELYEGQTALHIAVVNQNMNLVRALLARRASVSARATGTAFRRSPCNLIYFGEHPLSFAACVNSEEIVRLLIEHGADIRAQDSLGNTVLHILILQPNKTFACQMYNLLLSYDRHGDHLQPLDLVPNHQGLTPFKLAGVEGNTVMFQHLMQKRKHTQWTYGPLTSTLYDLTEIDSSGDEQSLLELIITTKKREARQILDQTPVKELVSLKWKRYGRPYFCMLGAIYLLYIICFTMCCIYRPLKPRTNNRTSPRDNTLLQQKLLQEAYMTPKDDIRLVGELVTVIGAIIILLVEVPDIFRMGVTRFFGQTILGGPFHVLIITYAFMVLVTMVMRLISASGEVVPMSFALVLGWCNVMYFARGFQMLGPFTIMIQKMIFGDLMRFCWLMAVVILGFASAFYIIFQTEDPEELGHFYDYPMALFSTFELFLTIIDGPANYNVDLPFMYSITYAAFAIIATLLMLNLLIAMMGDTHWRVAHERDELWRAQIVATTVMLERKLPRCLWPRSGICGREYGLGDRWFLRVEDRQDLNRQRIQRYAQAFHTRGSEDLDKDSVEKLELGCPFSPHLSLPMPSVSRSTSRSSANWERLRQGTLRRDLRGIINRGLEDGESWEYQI
Method: The steps were the same as those described in Example 5, except that the calcium ion channel V6 inhibitor: ruthenium red (RUR) was administered at the 154th second.

Caco-2 cells = test: Calcium uptake in Fluo-3-AM loaded Caco-2 cells (fluorescence intensity); format: cell-based, human
Method: The Caco-2 cell monolayer was cultured in a 10 cm2 culture dish containing DEME medium, and the cells were separated by TrypLE (Invitrogen, Carlsbad, Calif.) and washed several times with a phosphate-free KRH (Krebs Ringer Heps) solution. 5 μL of 1 mM Fluo-3-AM dye and 20% (w/v) thermally reversible hydrogel (Pluronic F-127, RF127) solution were added at 37° C. for about 30 minutes to obtain a Caco-2 cell suspension.
The Caco-2 cell suspension containing Fluo-3-AM dye was thoroughly rinsed in phosphate-free KRH solution and aliquoted, each aliquot containing 5×10^7 cells. After each aliquot was pelletized, the cells were resuspended in 240 μL of the phosphate-free KRH solution, and then transferred to a 96-well plate for use.

[1] = 400 μM peptide, 6 mM calcium ions, compared with 400 μM CPP group and no-peptide group

Molecule: N.N.N.N.N.N.N.N.N.N.N.N.N.N.[Cl-].[Cl-].[Cl-].[Cl-].[Cl-].[Cl-].[O-2].[O-2].[Ru+3].[Ru+3].[Ru+4] [ruthenium red]
- percentage decrease of peak calcium ion (peak [Ca2+]) compared to the first group (calcium ion channel V6; ruthenium red 10 μM (second group) vs 0 μM): 41.9%
- percentage decrease of peak calcium ion (peak [Ca2+]) compared to the first group (calcium ion channel V6; ruthenium red 20 μM (third group) vs 0 μM): 57.3%
- percentage decrease of peak calcium ion (peak [Ca2+]) compared to the first group (calcium ion channel V6; ruthenium red 50 μM (fourth group) vs 0 μM): 72.0%
- percentage decrease of peak calcium ion (peak [Ca2+]) compared to the first group (calcium ion channel V6; ruthenium red 100 μM (fifth group) vs 0 μM): 86.7%

Molecule: SEQ ID No. 2: peptide of SEQ ID No. 1 with the C-terminal 5 amino acids removed (TEVPAINTIASA)
- calcium-absorption promotion ability (Caco-2 cells; Example 17, FIG. 36, Caco-2 cells): have the ability to promote calcium absorption

Molecule: TEVPAINTIASAEPTVH [SEQ ID No. 1]
- calcium ion concentration (peak [Ca2+]) in Caco-2 cells (Caco-2 cells; [1]): significantly increased
- fluorescence intensity in Caco-2 cells (Caco-2 cells; [1]): significantly higher
- fluorescence intensity in Caco-2 cells (Caco-2 cells; at the 442th second, 0 mM calcium ions (first group), 400 μM peptide): 7,059,148
- fluorescence intensity in Caco-2 cells (Caco-2 cells; at the 442th second, 0.3 mM calcium ions (second group), 400 μM peptide): 9,780,517
- fluorescence intensity in Caco-2 cells (Caco-2 cells; at the 442th second, 0.5 mM calcium ions (third group), 400 μM peptide): 9,720,348
- fluorescence intensity in Caco-2 cells (Caco-2 cells; at the 442th second, 1.5 mM calcium ions (fourth group), 400 μM peptide): 10,604,175
- fluorescence intensity in Caco-2 cells (Caco-2 cells; at the 442th second, 3 mM calcium ions (fifth group), 400 μM peptide): 10,986,171
- fluorescence intensity in Caco-2 cells (Caco-2 cells; at the 442th second, 6 mM calcium ions (sixth group), 400 μM peptide): 10,912,015

Source: patent US10829517B2, “Method for treating or/and preventing calcium deficiency-related diseases” (National Chung Hsing University, priority 2017, dated 2020)
